# In article PMC4589779 (Scientific Reports, 2015):
# Read-outs that look alike come from different tables or passages of the source.
# Assays:
# [1] = test system: bile salt export protein (BSEP) mRNA
# Procedure: (§1) Quantification of the expression of FXR target genes in non-transfected cells offers the least artificial way to characterize the activity of a FXR ligand in vitro. […] As investigated genes we selected the direct FXR target genes bile salt export protein (BSEP) and small hetero-dimer partner (SHP) which allows a specific conclusion whether a FXR-dependent effect is present. […] We then quantified the mRNA of FXR target genes BSEP and SHP by qRT-PCR.
# (§2) HepG2 cells were seeded in DMEM high glucose, supplemented with 10% FCS, SP (1 mM), penicillin (100 U/mL) and streptomycin (100 μg/mL) at 37 °C and 5% CO2 in 6-well plates (2 · 10^6 per well). 24 h after seeding, medium was changed to MEM, supplemented with 1% charcoal-stripped FCS, penicillin (100 U/mL), streptomycin (100 μg/mL) and L-glutamine (2 mM). After additional 24 h, medium was changed again to MEM, now additionally containing 0.1% DMSO and the respective test compounds or 0.1% DMSO alone as untreated control. Cells were incubated with the test compounds for 6 h, harvested, washed with cold phosphate buffered saline (PBS) and then directly used for RNA extraction.
# Total RNA was extracted from HepG2 cells by the Total RNA Mini Kit (R6834-02, Omega Bio-Tek, Inc., Norcross, GA, USA). RNA was reverse-transcribed into cDNA using the High-Capacity cDNA Reverse Transcription Kit (4368814, Thermo Fischer Scientific, Inc., Waltham, MA, USA) with 2 μg RNA according to the manufacturer’s protocol.
# FXR target gene expression was evaluated by quantitative PCR analysis with a StepOnePlusTM System (Life Technologies) using PowerSYBRGreen (Life Technologies; 12.5 μL per well) and the following primers[17] (300 nM each): SHP: 5′-[…] (forward) and 5′-[…] (reverse); BSEP: 5′-[…] (forward) and 5′-[…] (reverse). Results were normalized to GAPDH Ct values. Sequences of the GAPDH primers were as follows: 5′-[…] (forward) and 5′- […] (reverse). Each sample was set up in duplicates and repeated in at least four independent experiments. The expression was quantified by the comparative ΔΔCt method.
# HepG2 cells = assay: Cell proliferation assay (WST-1) in HepG2 cells; conditions: for no toxic effect on cell viability up to (concentration): 6 hours incubation, alone or in combination with CDCA (50 μM); for effect on cell viability: 6 hours, 25 μM NSAID and CDCA (50 μM); for concentrations that are considerably toxic: summing up of the WST-1 toxicity data (HepG2 and HEK293T)
# Procedure: (§3) WST-1 assay (Roche Diagnostics International AG, Rotkreuz, Switzerland) was performed according to manufacturer’s protocol. In brief, HepG2 cells were seeded in DMEM high glucose, supplemented with sodium pyruvate (1 mM), penicillin (100 U/mL), streptomycin (100 μg/mL) and 10% FCS in 96-well plates (3 · 10^4 cells/well). HEK293T cells were seeded in DMEM high glucose, supplemented with sodium pyruvate (1 mM), penicillin (100 U/mL), streptomycin (100 μg/mL) and 10% FCS in 96-well plates (2,5 · 10^4 cells/well). After 24 h, medium was changed to DMEM high glucose, supplemented with penicillin (100 U/mL), streptomycin (100 μg/mL) and 1% charcoal stripped FCS and cells were incubated with varying concentrations of test compounds, Revlotron (100 μM) as positive control and DMEM/0,1% DMSO as negative control. […] […] After 45 min incubation, absorption (450 nm/reference: 620 nm) was determined with a Tecan Infinite M200 luminometer (Tecan Deutschland GmbH). Each experiment was repeated at least four times in triplicates.
# CYP7A1 mRNA = test system: CYP7A1 mRNA; design: method as in PMID 25631039; conditions: HepG2 cells, with 50 μM CDCA; cited from earlier work
# HEK293T cells = assay: Cell proliferation assay (WST-1) in HEK293T cells; format: cell-based; conditions: for anti-proliferative effect in combination with CDCA: 24 h, NSAIDs 5, 25, 50 μM combined with CDCA (50 μM); for toxicity compared with HepG2 cells: 48 h
# Procedure: as §3
# [2] = biological target: T1, FXR-LBD protein (residues 244–472) (Homo sapiens, UniProt Q96RI1)
# T1 sequence (Q96RI1 244-472 isoform Q96RI1-2): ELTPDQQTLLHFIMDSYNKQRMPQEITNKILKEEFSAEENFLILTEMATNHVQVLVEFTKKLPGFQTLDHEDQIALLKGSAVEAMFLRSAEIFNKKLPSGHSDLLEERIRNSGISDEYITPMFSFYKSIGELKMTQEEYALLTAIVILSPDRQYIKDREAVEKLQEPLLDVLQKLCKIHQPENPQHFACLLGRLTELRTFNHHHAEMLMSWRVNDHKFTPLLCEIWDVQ
# Source text: The thermal shift method is widely used to assess ligand binding. A thermal shift assay usually measures the melting temperature of a protein with or without a ligand by monitoring a fluorescent dye. In an aqueous solution of folded protein the dye signal is low due to quenching of the dye fluorescence in water, but with increasing temperature the protein unfolds and exposes its hydrophobic core regions. The fluorescent dye is then bound to the hydrophobic surfaces and fluorescence increases.
# Thermal Shift assay was performed in clear 96-well plates (Invitrogen) using SYPRO Orange (Invitrogen Darmstadt, Germany) as dye. […] Temperature-dependent fluorescence increase reporting protein denaturation was measured in duplicates in an ICycler (Bio-Rad) from 20 to 90 °C in steps of 0.2 °C per minute at […] and 570 nm emission wavelength. Each experiment was independently repeated four times. The first derivative of the melting curves was calculated using the Graph Pad Prism 5 software.
# [3] = biological target: T2, fusion receptor of the FXR ligand binding domain and a Gal4 DNA binding domain (Homo sapiens, UniProt Q96RI1)
# T2 sequence (Q96RI1 262-486 limits assumed): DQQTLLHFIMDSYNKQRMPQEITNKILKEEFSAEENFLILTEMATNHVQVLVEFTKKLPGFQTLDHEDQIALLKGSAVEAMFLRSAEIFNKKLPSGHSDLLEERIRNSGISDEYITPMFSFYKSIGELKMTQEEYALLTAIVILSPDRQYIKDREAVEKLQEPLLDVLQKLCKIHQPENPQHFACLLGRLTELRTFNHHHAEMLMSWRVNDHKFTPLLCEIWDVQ
# Procedure: Luminescence was measured with an Infinite M200 luminometer (Tecan Deutschland GmbH). […] Fold activation was obtained by dividing the mean RLU of a test compound at a respective concentration by the mean RLU of untreated control.
# FXR = biological target: T3, FXR (Homo sapiens, UniProt Q96RI1); assay: Full-length FXR reporter gene assay in HeLa cells (BSEP promotor, RXRα); format: cell-based
# T3 construct: is based on the complete FXR receptor (CMV promoter); expressed in transfected cells; host or cells: HeLa
# T3 sequence (Q96RI1 1-486): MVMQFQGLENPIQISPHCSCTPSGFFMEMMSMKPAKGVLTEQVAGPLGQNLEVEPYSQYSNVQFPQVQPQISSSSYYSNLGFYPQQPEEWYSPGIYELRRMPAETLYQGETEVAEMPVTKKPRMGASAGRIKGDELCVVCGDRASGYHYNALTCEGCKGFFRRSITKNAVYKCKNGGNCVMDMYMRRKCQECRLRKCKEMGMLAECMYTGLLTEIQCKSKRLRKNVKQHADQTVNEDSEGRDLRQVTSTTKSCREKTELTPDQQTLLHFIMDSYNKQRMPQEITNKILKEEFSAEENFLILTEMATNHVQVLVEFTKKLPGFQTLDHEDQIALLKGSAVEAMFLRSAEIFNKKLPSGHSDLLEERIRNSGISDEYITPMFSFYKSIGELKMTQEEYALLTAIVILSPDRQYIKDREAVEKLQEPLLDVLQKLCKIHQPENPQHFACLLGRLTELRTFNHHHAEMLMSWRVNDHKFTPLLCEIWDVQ
# T3 sequence (P19793 1-462 partner): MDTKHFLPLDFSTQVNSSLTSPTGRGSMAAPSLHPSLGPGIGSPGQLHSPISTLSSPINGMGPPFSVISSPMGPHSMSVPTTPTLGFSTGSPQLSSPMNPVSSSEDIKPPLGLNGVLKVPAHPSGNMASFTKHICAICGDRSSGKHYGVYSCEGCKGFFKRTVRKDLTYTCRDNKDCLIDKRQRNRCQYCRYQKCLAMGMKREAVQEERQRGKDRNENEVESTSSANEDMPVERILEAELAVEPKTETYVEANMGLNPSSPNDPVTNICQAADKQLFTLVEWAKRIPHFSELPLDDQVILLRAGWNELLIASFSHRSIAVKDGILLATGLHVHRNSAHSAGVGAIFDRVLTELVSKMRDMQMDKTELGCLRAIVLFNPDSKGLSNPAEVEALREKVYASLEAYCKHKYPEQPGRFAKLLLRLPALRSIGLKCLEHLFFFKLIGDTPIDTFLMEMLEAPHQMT
# Procedure: Luminescence was measured with a Tecan Infinite M200 luminometer (Tecan Deutschland GmbH, Crailsheim, Germany). […] Fold activation was obtained by dividing the mean RLU of the tested compound at a respective concentration by the mean RLU of untreated control.
# [4] = test system: small hetero-dimer partner (SHP) mRNA; assay: FXR target gene quantification by qRT-PCR in HepG2 cells: SHP; format: cell-based
# Procedure: as §1
# as §2, with “extraction. […]” for “extraction.”
# FXR target gene expression was evaluated by quantitative PCR analysis with a StepOnePlusTM System (Life Technologies) using PowerSYBRGreen (Life Technologies; 12.5 μL per well) and the following primers[17] […] The expression was quantified by the comparative ΔΔCt method.
# [5] = Cell proliferation assay (WST-1) in HepG2 cells; conditions: human, HepG2 cells
# Procedure: as §3
# [6] = 10 or 30 μM in competition with GW4064 (3 μM), OCA (3 μM) and CDCA (20 μM)
smiles,measurement,setting,value
COc1ccc2c(c1)c(CC(=O)O)c(C)n2C(=O)c1ccc(Cl)cc1 [indometacin],antagonistic effect on BSEP expression,"[1]; HepG2 cells, 25 μM and 50 μM in competition with CDCA (50 μM), 6 h",did not observe any antagonistic effect
same,effect on BSEP expression,"[1]; HepG2 cells, 50 μM alone, 6 h incubation",did not affect the expression
same,no toxic effect on cell viability up to (concentration),HepG2 cells; HepG2 cells,up to 50 μM
same,effect on cell viability,HepG2 cells; HepG2 cells,did not affect cell viability
same,concentrations with anti-proliferative activity / slight toxicity,"HepG2 cells; human, 48 h",≥ 10 µM
same,concentrations that are considerably toxic,HepG2 cells,≥ 30 µM
same,induction of CYP7A1 expression (increase in mRNA levels),CYP7A1 mRNA,9 fold
same,anti-proliferative effect in combination with CDCA,HEK293T cells,considerable anti-proliferative effects
same,toxicity compared with HepG2 cells,HEK293T cells,even higher toxicity
CC(C)c1onc(-c2c(Cl)cccc2Cl)c1COc1ccc(/C=C/c2cccc(C(=O)O)c2)c(Cl)c1 [GW4064],concentrations that robustly stabilize the FXR-LBD,"[2]; 5 μM FXR-LBD, ratio to protein ≥20:1",≥ 100 µM
CC(C)Cc1ccc(C(C)C(=O)O)cc1 (centres unmarked) [ibuprofen],no toxic effect on cell viability up to (concentration),HepG2 cells; HepG2 cells,up to 100 μM
same,effect on cell viability,HepG2 cells; HepG2 cells,did not affect cell viability
same,no toxicity up to (concentration),"HepG2 cells; HepG2 cells, 48 h",up to 50 μM
same,induction of CYP7A1 expression (increase in mRNA levels),CYP7A1 mRNA,1.7 fold
same,anti-proliferative effect in combination with CDCA,HEK293T cells,considerable anti-proliferative effects
"O=C(O)Cc1ccccc1Nc1c(Cl)cccc1Cl [diclofenac, diclofenac sodium]",activity of the control gene (renilla luciferase),[3],toxicity driven decrease
same,agonistic activity,[3]; 10 or 30 μM alone,None
same,competitive antagonistic activity,[3]; [6],None
same,agonistic activity,FXR; 10 or 30 μM alone,None
same,competitive antagonistic activity,FXR; [6],None
same,antagonistic effect on SHP expression,"[4]; 25 μM and 50 μM in competition with CDCA (50 μM), 6 h",did not observe any antagonistic effect
same,effect on SHP expression,"[4]; 50 μM alone, 6 h incubation",did not affect the expression
same,effect on BSEP expression,[1],did not affect the expression
same,"viability at 6 h, 30 μM",[5],85 ± 2%
same,"viability at 6 h, 50 μM",[5],75 ± 2%
same,effect on cell viability,HepG2 cells; HepG2 cells,did not affect cell viability
same,concentrations with anti-proliferative activity / slight toxicity,"HepG2 cells; HepG2 cells, 48 h",≥ 10 µM
same,concentrations that are considerably toxic,HepG2 cells,≥ 30 µM
same,stabilization of the FXR-LBD,"[2]; 500 μM alone, ratio to protein 100:1",did not stabilize the FXR-LBD
same,antagonism of the stabilization of the FXR-LBD by GW4064,"[2]; 500 μM in competition with GW4064 (100 μM, ratio 20:1)",did not antagonize the stabilization
same,anti-proliferative effect in combination with CDCA,HEK293T cells,considerable anti-proliferative effects
same,toxicity compared with HepG2 cells,HEK293T cells,even higher toxicity
